This data set in a line: Skin tolerability observed during the topical treatments. In kind it is in vivo, human. The conditions noted are these: described topical treatments. From the text: A low-risk, non-invasive preventative or therapeutic treatment of acquired nevus cell nevi or of acquired or congenital nevus cell nevi (=birthmarks) with artemisinine and derivatives thereof (dihydroartemisinine, arteether, arthemeter, artesunate semisynthetic derivatives thereof and synthetically analogous compounds) represents enormous progress in the treatment of nevus cell nevi and could drastically reduce the risk of skin cancer. The invention is thus of great significance not only medically but also socioeconomically. […] It is also remarkable that healthy tissue is not damaged and the treatment is painless and simple.

Turning to `C[C@H]1[C@H](OC(=O)CCC(=O)O)O[C@@H]2O[C@@]3(C)CC[C@H]4[C@H](C)CC[C@@H]1[C@@]24OO3` [artesunate], the allergic skin reactions result is “No allergic skin reactions”.

(Values after patent US8013011B2, “Treatment and prevention of benign pigmented moles (naevi) using artemisinine and the derivatives thereof” (EPIPHARM GmbH, priority 2005, dated 2011).)
